In paper PMC6481345, “A novel anti-melanoma SRC-family kinase inhibitor” (Oncotarget, 2019):

Columns and labels:
[1] = test system: NBMEL normal human melanocytes; experiment: CellTiter-Glo Luminescent Cell Viability Assay; format: cell-based; settings: Melanocyte, WT, 72 hrs
Description: SFK-inhibitors were tested on a panel of NCI-60 cell lines (Supplementary Table 1) and 30 melanoma cell lines and NBMEL, i.e., normal human melanocytes isolated from a newborn foreskin (Table 1 and Supplementary Table 2). The Yale melanoma cohort designated YU originated from tumors excised to improve patient quality of life and used with participants’ informed consent according to Health Insurance Portability and Accountability Act (HIPAA) regulations with Human Investigative Committee protocol.
(§1) The melanoma cells were grown in OptiMEM (Invitrogen, Carlsbad, CA) supplemented with 5% fetal calf serum and antibiotics. The normal human melanocytes (NBMEL) were grown in medium supplemented with bFGF, IBMX and dbcAMP [32]. Most of the Yale melanoma cell lines were characterized by next-generation sequencing (Supplementary Table 2).
Cell proliferation was measured with the CellTiter-Glo® Luminescent Cell Viability Assay (Promega Corporation, Madison, WI). Melanoma cells were seeded in 96-well plates in triplicate or quadruplet wells, with increasing concentrations of kinase inhibitors for 72 hrs. The rate of proliferation was also tested after knockdown of different SRC-family kinases (SFK) with hairpin lentivirus shRNA as indicated. […] The statistical significance of synergism of response to drug combinations was evaluated by following Chou and Talalay algorithm. […]

[2] = test system: YUTOGS melanoma cells; experiment: CellTiter-Glo Luminescent Cell Viability Assay; format: cell-based; settings: Homo sapiens, WT/WT, 72 hrs
Description: as §1
(§2) Cell proliferation was measured with the CellTiter-Glo® Luminescent Cell Viability Assay (Promega Corporation, Madison, WI). Melanoma cells were seeded in 96-well plates in triplicate or quadruplet wells, with increasing concentrations of kinase inhibitors for 72 hrs. The rate of proliferation was also tested after knockdown of different SRC-family kinases (SFK) with hairpin lentivirus shRNA as indicated. […] The statistical significance of synergism of response to drug combinations was evaluated by following Chou and Talalay algorithm. See also details in Supplementary Material.

[3] = test system: YULIPPY melanoma cells; experiment: CellTiter-Glo Luminescent Cell Viability Assay; format: cell-based; settings: Homo sapiens, BRAF V600E, 72 hrs
Description: as §1, §2

[4] = test system: YUGANK melanoma cells; experiment: CellTiter-Glo Luminescent Cell Viability Assay; format: cell-based; settings: Homo sapiens, NRAS Q61K, 72 hrs
Description: as §1, §2

[5] = test system: YURIF melanoma cells; experiment: CellTiter-Glo Luminescent Cell Viability Assay; format: cell-based; settings: Homo sapiens, BRAF V600K, 72 hrs
Description: as §1, §2

[6] = test system: YUGEN8 melanoma cells; experiment: CellTiter-Glo Luminescent Cell Viability Assay; format: cell-based; settings: Homo sapiens, YUGEN8, BRAF V600E, 72 hrs
Description: as §1, §2

[7] = test system: YUZEST melanoma cells; experiment: CellTiter-Glo Luminescent Cell Viability Assay; format: cell-based; settings: Homo sapiens, BRAF V600E, 72 hrs
Description: as §1, §2

[8] = test system: YUFURL melanoma cells; experiment: CellTiter-Glo Luminescent Cell Viability Assay; format: cell-based; settings: Homo sapiens, NRAS G12D, 72 hrs
Description: as §1, §2

[9] = test system: YUHEF melanoma cells; experiment: CellTiter-Glo Luminescent Cell Viability Assay; format: cell-based; settings: Homo sapiens, WT/WT, 72 hrs
Description: as §1, §2

[10] = test system: YUDOSO melanoma cells; experiment: CellTiter-Glo Luminescent Cell Viability Assay; format: cell-based; settings: Homo sapiens, NRAS Q61K, 72 hrs
Description: as §1, §2

[11] = test system: YUCHIME melanoma cells; experiment: CellTiter-Glo Luminescent Cell Viability Assay; format: cell-based; settings: Homo sapiens, BRAF V600K/M, 72 hrs
Description: as §1, §2

[12] = test system: YUKSI melanoma cells; experiment: CellTiter-Glo Luminescent Cell Viability Assay; format: cell-based; settings: Homo sapiens, BRAF V600K, 72 hrs
Description: as §1, §2

[13] = test system: YUROL melanoma cells; experiment: CellTiter-Glo Luminescent Cell Viability Assay; format: cell-based; settings: Homo sapiens, WT/WT, 72 hrs
Description: as §1, §2

[14] = test system: YUHIMO melanoma cells; experiment: CellTiter-Glo Luminescent Cell Viability Assay; format: cell-based; settings: Homo sapiens, PDE4DIP-BRAF fusion, 72 hrs
Description: as §1, §2

[15] = test system: YUPEPO melanoma cells; experiment: CellTiter-Glo Luminescent Cell Viability Assay; format: cell-based; settings: Homo sapiens, WT/WT, GNA11 Q209L, 72 hrs
Description: as §1, §2

[16] = test system: YUMAC melanoma cells; experiment: CellTiter-Glo Luminescent Cell Viability Assay; format: cell-based; settings: Homo sapiens, BRAF V600K, 72 hrs
Description: as §1, §2

[17] = test system: SK-MEL-28 melanoma cells; experiment: CellTiter-Glo Luminescent Cell Viability Assay; format: cell-based; settings: Homo sapiens, SK-MEL-28, BRAF V600E, 72 hrs
Description: as §1, §2

[18] = test system: SK-MEL-23 melanoma cells; experiment: CellTiter-Glo Luminescent Cell Viability Assay; format: cell-based; settings: Homo sapiens, SK-MEL-23, WT/WT, 72 hrs
Description: as §1, §2

[19] = test system: YUTICA melanoma cells; experiment: CellTiter-Glo Luminescent Cell Viability Assay; format: cell-based; settings: Homo sapiens, NRAS Q61R, 72 hrs
Description: as §1, §2

[20] = test system: YUCRATE melanoma cells; experiment: CellTiter-Glo Luminescent Cell Viability Assay; format: cell-based; settings: Homo sapiens, BRAF G469A, 72 hrs
Description: as §1, §2

[21] = test system: YUNIS melanoma cells; experiment: CellTiter-Glo Luminescent Cell Viability Assay; format: cell-based; settings: Homo sapiens, HRAS Q61K, 72 hrs
Description: as §1, §2

[22] = molecular target: T1, RIPK2 (Homo sapiens, UniProt O43353); experiment: KiNativ in situ kinase profiling in melanoma cell lysates; format: binding; settings: RIPK2 in YUSIK lysate; 3-point dose response
T1 construct: we tested the endogenous kinome response to SAB298; host or cells: YUSIV or YUSIK melanoma cell lysate
T1 sequence (O43353 whole entry): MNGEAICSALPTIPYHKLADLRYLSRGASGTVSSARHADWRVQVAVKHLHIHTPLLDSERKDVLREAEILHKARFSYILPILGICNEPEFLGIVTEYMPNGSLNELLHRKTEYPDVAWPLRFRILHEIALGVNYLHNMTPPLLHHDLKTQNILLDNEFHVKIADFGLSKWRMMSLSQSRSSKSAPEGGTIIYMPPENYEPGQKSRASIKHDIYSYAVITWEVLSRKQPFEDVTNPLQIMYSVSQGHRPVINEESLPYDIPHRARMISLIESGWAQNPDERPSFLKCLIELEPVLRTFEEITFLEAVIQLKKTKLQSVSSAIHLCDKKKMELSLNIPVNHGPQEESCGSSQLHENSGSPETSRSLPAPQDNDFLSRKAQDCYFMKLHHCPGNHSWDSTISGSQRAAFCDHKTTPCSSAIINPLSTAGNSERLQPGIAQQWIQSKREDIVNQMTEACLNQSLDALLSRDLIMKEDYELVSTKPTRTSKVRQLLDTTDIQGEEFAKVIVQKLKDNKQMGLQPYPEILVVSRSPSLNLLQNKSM
Description: (§3) The effect of SAB298 on a panel of 36 recombinant kinases, was screed with the radioisotope filter binding assay employing 10 concentrations of the compound with 10 µM ATP (Reaction Biology Corporation, Malvern, PA). In addition, we tested the endogenous kinome response to SAB298 (0.05 µM, 0.5 µM and 5 µM) in lysates from two melanoma cell lines (YUSIV and YUSIK) employing the KiNativ® platform (ActivX Biosciences Inc., La Jolla, CA). KiNativ® is a robust, high performance mass spectrometry (LC-MS^2) assay that uses biotinylated probes to measure relevant changes in the affinity to the ATP-binding sites of 205 native kinases as a function of cellular context. We also validated SAB298 effect on the activity of SRC-family kinases by probing for phosphorylated Y416, the marker of activated SFKs, with anti-IEDNEpYTAR antibodies (also known as Y419, #2101, Cell Signaling Technology, Beverly, MA). In some cases the cells were incubated overnight with 20 µM proteasome inhibitor MG-132 (CAS 133407-82-6, Millipore Sigma, Burlington, MA) to rescue degradation.

[23] = molecular target: T2, MEK1 (Homo sapiens, UniProt Q02750); experiment: as above; format: binding; settings: MEK1 in YUSIV lysate; 3-point dose response
T2 construct: we tested the endogenous kinome response to SAB298; host or cells: YUSIV or YUSIK melanoma cell lysate
T2 sequence (Q02750 whole entry): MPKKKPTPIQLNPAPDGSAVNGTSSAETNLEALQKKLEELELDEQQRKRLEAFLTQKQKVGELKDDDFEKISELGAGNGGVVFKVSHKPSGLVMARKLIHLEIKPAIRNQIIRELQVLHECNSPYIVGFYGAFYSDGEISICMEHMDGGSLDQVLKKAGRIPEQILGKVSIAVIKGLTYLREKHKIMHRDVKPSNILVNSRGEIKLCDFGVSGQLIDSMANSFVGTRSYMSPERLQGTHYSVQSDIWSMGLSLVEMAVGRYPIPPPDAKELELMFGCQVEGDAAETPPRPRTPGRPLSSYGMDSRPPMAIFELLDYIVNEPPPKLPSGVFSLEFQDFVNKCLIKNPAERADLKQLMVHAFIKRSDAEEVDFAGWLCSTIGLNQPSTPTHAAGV
Description: as §3

[24] = molecular target: T3, mTOR (Homo sapiens, UniProt P42345); experiment: as above; format: binding; settings: 3-point dose response
T3 construct: we tested the endogenous kinome response to SAB298; host or cells: YUSIV and YUSIK melanoma cell lysates
Description: as §3

Nc1ncnc2c1c(-c1ccc(Oc3ccccc3)cc1)nn2C[C@@H]1SSC[C@@H]1O [SAB298, (3S, 4S)-3-((4-amino-3-(4-phenoxyphenyl)-1H-pyrazolo[3,4-d]pyrimidin-1-yl)methyl)-1,2-dithiolan-4-ol]
IC50 [1]: 968 nM
IC50 [2]: 347 nM
IC50 [3]: 111 nM
IC50 [4]: 456 nM
IC50 [5]: 500 nM
IC50 [6]: 115 nM
IC50 [7]: 263 nM
IC50 [8]: 371 nM
IC50 [9]: 257 nM
IC50 [10]: 2360 nM
IC50 [11]: 2480 nM
IC50 [12]: 582 nM
IC50 [13]: 717 nM
IC50 [14]: 237 nM
IC50 [15]: 264 nM
IC50 [16]: 894 nM
IC50 [17]: 812 nM
IC50 [18]: 162 nM
IC50 [19]: 766 nM
IC50 [20]: 282 nM
IC50 [21]: 2580 nM
IC50 [22]: 20 nM
IC50 [23]: 2900 nM
IC50 ([24]; mTOR in YUSIK lysate): 2000 nM
IC50 ([24]; mTOR in YUSIV lysate): 1300 nM
